Patent US6803198B2, “Carbamate-derivatized nucleosides and oligonucleosides” (ISIS Pharmaceuticals, Inc., priority 1996, dated 2004)

Columns and labels:
[1] = tested on: ICAM-1; experiment: Inhibition of LPS-induced ICAM-1 expression in mouse liver; assay type: in vivo, C57Bl/10 mice; settings: 10 mg/kg i.v. twice, 24 h and 2 h before LPS; liver RNA 4 h after LPS
[2] = mouse, in vivo
Method: The effect of cholesterol conjugation on the pharmacokinetic properties of the oligonucleotide is determined in mice using ^3H radiolabeled Oligonucleotide VI.

[3] = tested on: ICAM-1; experiment: ICAM-1 expression in bEnd.3 cells (flow cytometry of cell-surface protein, Northern blot of mRNA); assay type: cell-based, mouse; settings: cell culture, without any cationic lipid adjuvant
From the text: Cholesterol-oligonucleotide assays for ICAM-1 are done in the bEnd.3 cell line, a brain endothelioma using Opti-MEM, trypsin-EDTA and DMEM with high glucose (all from Gibco-BRL, Grand Island, N.Y.), Dulbecco's PBS (Irvine Scientific, Irvine, Calif.), sterile, 12 well tissue culture plates and Facsflow solution (from Becton Dickinson, Mansfield, Mass.), ultrapure formaldehyde (Polysciences, Warrington, Pa.), recombinant human TNF-α (R&D Systems, Minneapolis, Minn., mouse interferon-γ (Genzyme, Cambridge, Mass.), and Fraction V, BSA (Sigma, St. Louis, Mo.). The mouse ICAM-1-PE, VCAM-1-FITC, hamster IgG-FITC and rat IgG2α-PE antibodies were purchased from Pharmingen (San Diego, Calif.). Zeta-Probe nylon blotting membrane was purchased from Bio-Rad (Richmond, Calif.). QuickHyb solution was purchased from Stratagene (La Jolla, Calif.). A cDNA labeling kit, Prime-a-Gene, was purchased from ProMega (Madison, Wis.). NAP-5 columns were purchased from Pharmacia (Uppsala, Sweden). […]
After oligonucleotide treatment, cells are detached from the plates with a short treatment of trypsin-EDTA (1-2 min.). […] Cells are analyzed on a Becton Dickinson FACScan. Results are expressed as percentage of control expression, which is calculated as follows: [((CAM expression for oligonucleotide-treated cytokine induced cells)−(basal CAM expression))/((cytokine-induced CAM expression)−(basal CAM expression))]×100. […]

[4] = tested on: VCAM-1; experiment: VCAM-1 expression in cell culture (target specificity control); assay type: cell-based, mouse; settings: isotype protein VCAM-1
From the text: Cholesterol-oligonucleotide assays for ICAM-1 are done in the bEnd.3 cell line, a brain endothelioma using Opti-MEM, trypsin-EDTA and DMEM with high glucose (all from Gibco-BRL, Grand Island, N.Y.), Dulbecco's PBS (Irvine Scientific, Irvine, Calif.), sterile, 12 well tissue culture plates and Facsflow solution (from Becton Dickinson, Mansfield, Mass.), ultrapure formaldehyde (Polysciences, Warrington, Pa.), recombinant human TNF-α (R&D Systems, Minneapolis, Minn., mouse interferon-γ (Genzyme, Cambridge, Mass.), and Fraction V, BSA (Sigma, St. Louis, Mo.). The mouse ICAM-1-PE, VCAM-1-FITC, hamster IgG-FITC and rat IgG2α-PE antibodies were purchased from Pharmingen (San Diego, Calif.). Zeta-Probe nylon blotting membrane was purchased from Bio-Rad (Richmond, Calif.). QuickHyb solution was purchased from Stratagene (La Jolla, Calif.). A cDNA labeling kit, Prime-a-Gene, was purchased from ProMega (Madison, Wis.). NAP-5 columns were purchased from Pharmacia (Uppsala, Sweden). Cells are grown to approximately 75% confluency in 12 well plates with DMEM containing 4.5 g/L glucose and 10% FBS. […] Cells are analyzed on a Becton Dickinson FACScan. Results are expressed as percentage of control expression, which is calculated as follows: [((CAM expression for oligonucleotide-treated cytokine induced cells)−(basal CAM expression))/((cytokine-induced CAM expression)−(basal CAM expression))]×100. […]

Substance: Oligomer VI: TGC* ATC CCC CAG GCC ACC AT (P = S), C* = cholesterol carbamate nucleoside Compound 9; cholesterol conjugate of ISIS 3082
- reduction of ICAM expression in liver [1]: 40-50%
- amount of oligonucleotide in kidney, skeletal muscle and skin [2]: reduced in kidney, skeletal muscle and skin
- amount of oligonucleotide in liver [2]: more oligonucleotide is found in the liver
- retention in plasma [2]: retained in the plasma for longer periods of time than is ISIS-3082
- effect on ICAM-1 expression [3]: inhibits ICAM-1 in a dose dependent manner
- inhibition of VCAM-1 expression [4]: neither molecule show significant inhibition
